Values joined by “and” are separate entries in the source; they are usually repeats but may differ in a detail not shown here. Equal entries are not always repeated.
System: 521955-158-R2-J5-PDC spheroids with stroma, growth inhibition
Assay: Anticancer human tumor 521955-158-R2-J5-PDC patient-derived pancreatic carcinoma cell line growth inhibition [TAK]
Details: for viability, T/C: stronger effect = lower value
Outline: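 Tumor cells were grown as spheroids with HUVEC and hMSC (60:25:15) and treated with targeted agents combined with TAK-243 or ipatasertib. Drugs were tested in half-log steps down from near the clinical Cmax, or from 10 microM where Cmax was unknown.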
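Also: spheroids exposed to drugs for seven days before readout.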
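For viability, T/C in this document: 100% = DMSO vehicle control viability.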

Question: What does the source list for COC1CC2CCC(C)C(O)(O2)C(=O)C(=O)N2CCCCC2C(=O)OC(C(C)CC2CCC(OCCO)C(OC)C2)CC(=O)C(C)C=C(C)C(O)C(OC)C(=O)C(C)CC(C)C=CC=CC=C1C (stereo not drawn)?
Answer: viability, T/C (compound 0.000316 µM): 102% and 111%; viability, T/C (compound 0.001 µM): 105% and 97.8%; viability, T/C (compound 0.00316 µM): 90.8% and 91.6%; viability, T/C (compound 0.01 µM): 93.4% and 91.1%; viability, T/C (compound 0.0316 µM): 86.8% and 89.5%; viability, T/C (compound 0.1 µM): 73.8% and 66.2%; IC50 (curve of compound): > 0.1 µM

Question: Which results are given for CC(C)CC(NC(=O)C(Cc1ccccc1)NC(=O)c1cnccn1)B(O)O (stereo not drawn)?
Answer: viability, T/C (compound 31.6 pM): 94.9% and 116%; viability, T/C (compound 0.0001 µM): 90.7% and 91.3%; viability, T/C (compound 0.000316 µM): 91.3% and 92.2%; viability, T/C (compound 0.001 µM): 95.1% and 117%; viability, T/C (compound 0.00316 µM): 105% and 99.9%; viability, T/C (compound 0.01 µM): 12.7% and 7.91%; IC50 (curve of compound): 0.00596 µM and 0.00603 µM

Question: How did the viability, T/C (compound 0.00949 µM) turn out when Cn1cnc2c(F)c(Nc3ccc(Br)cc3Cl)c(C(=O)NOCCO)cc21 was run?
Answer: Its viability, T/C is 77.5% and 65.7%.

Question: And the viability, T/C (compound 0.03 µM)?
Answer: Its viability, T/C is 49.3% and 60.3%.

Question: What about the viability, T/C (compound 0.0949 µM) of the same molecule?
Answer: Its viability, T/C is 45.1% and 51.2%.

Question: What about the viability, T/C (compound 0.3 µM) of the same molecule?
Answer: The viability, T/C was 42.5% and 42.8%.

Question: And the viability, T/C (compound 0.949 µM)?
Answer: Its viability, T/C is 40.2% and 36%.

Question: And the viability, T/C (compound 3 µM)?
Answer: The viability, T/C was 34% and 28.5%.

Question: What about the IC50 (curve of compound) of the same molecule?
Answer: Its IC50 is 0.0382 µM and 0.117 µM.

Question: What does the source list for CC(C)(C)c1nc(-c2cccc(NS(=O)(=O)c3c(F)cccc3F)c2F)c(-c2ccnc(N)n2)s1?
Answer: viability, T/C (compound 0.0316 µM): 102% and 112%; viability, T/C (compound 0.1 µM): 112% and 117%; viability, T/C (compound 0.316 µM): 140% and 170%; viability, T/C (compound 1 µM): 160% and 186%; viability, T/C (compound 3.16 µM): 114% and 125%; viability, T/C (compound 10 µM): 88.9% and 92.2%; IC50 (curve of compound): > 10 µM

Question: COC1CC2CCC(C)C(O)(O2)C(=O)C(=O)N2CCCCC2C(=O)OC(C(C)CC2CCC(OCCO)C(OC)C2)CC(=O)C(C)C=C(C)C(O)C(OC)C(=O)C(C)CC(C)C=CC=CC=C1C (stereo not drawn) + CC(C)NCC(C(=O)N1CCN(c2ncnc3c2C(C)CC3O)CC1)c1ccc(Cl)cc1 was tested. Which IC50 (curve of first compound, second compound 0.3 µM) did it give?
Answer: Its IC50 is greater than 0.1 µM.

Question: And the IC50 (curve of first compound, second compound 0.949 µM)?
Answer: Its IC50 is greater than 0.1 µM.

Question: And the IC50 (curve of first compound, second compound 3 µM)?
Answer: Its IC50 is greater than 0.1 µM.

Question: And the IC50 (curve of first compound, second compound 9.49 µM)?
Answer: Its IC50 is greater than 0.1 µM.

Question: And the IC50 (curve of first compound, second compound 30 µM)?
Answer: Its IC50 is less than 0.000316 µM.

Question: And the viability, T/C (second compound 0.3 µM, first compound 0.000316 µM)?
Answer: The viability, T/C was 118%.

Question: And the viability, T/C (second compound 0.3 µM, first compound 0.001 µM)?
Answer: Its viability, T/C is 95.9%.

Question: What about the viability, T/C (second compound 0.3 µM, first compound 0.00316 µM) of the same molecule?
Answer: The viability, T/C was 77.3%.

Question: And the viability, T/C (second compound 0.3 µM, first compound 0.01 µM)?
Answer: The viability, T/C was 76%.

Question: What about the viability, T/C (second compound 0.3 µM, first compound 0.0316 µM) of the same molecule?
Answer: Its viability, T/C is 82.4%.

Question: What about the viability, T/C (second compound 0.3 µM, first compound 0.1 µM) of the same molecule?
Answer: The viability, T/C was 65.5%.

Question: And the viability, T/C (second compound 0.949 µM, first compound 0.000316 µM)?
Answer: The viability, T/C was 79.4%.

Question: What about the viability, T/C (second compound 0.949 µM, first compound 0.001 µM) of the same molecule?
Answer: Its viability, T/C is 75.1%.

Question: What about the viability, T/C (second compound 0.949 µM, first compound 0.00316 µM) of the same molecule?
Answer: Its viability, T/C is 79.8%.

Question: And the viability, T/C (second compound 0.949 µM, first compound 0.01 µM)?
Answer: Its viability, T/C is 79.7%.

Question: And the viability, T/C (second compound 0.949 µM, first compound 0.0316 µM)?
Answer: Its viability, T/C is 89%.

Question: What about the viability, T/C (second compound 0.949 µM, first compound 0.1 µM) of the same molecule?
Answer: The viability, T/C was 86.7%.

Question: What about the viability, T/C (second compound 3 µM, first compound 0.000316 µM) of the same molecule?
Answer: Its viability, T/C is 97.8%.

Question: What about the viability, T/C (second compound 3 µM, first compound 0.001 µM) of the same molecule?
Answer: Its viability, T/C is 98.3%.

Question: And the viability, T/C (second compound 3 µM, first compound 0.00316 µM)?
Answer: The viability, T/C was 93.9%.

Question: And the viability, T/C (second compound 3 µM, first compound 0.01 µM)?
Answer: Its viability, T/C is 80.9%.

Question: What about the viability, T/C (second compound 3 µM, first compound 0.0316 µM) of the same molecule?
Answer: Its viability, T/C is 75.7%.

Question: What about the viability, T/C (second compound 3 µM, first compound 0.1 µM) of the same molecule?
Answer: Its viability, T/C is 76.2%.

Question: What about the viability, T/C (second compound 9.49 µM, first compound 0.000316 µM) of the same molecule?
Answer: Its viability, T/C is 78.3%.

Question: What about the viability, T/C (second compound 9.49 µM, first compound 0.001 µM) of the same molecule?
Answer: The viability, T/C was 84.5%.

Question: What about the viability, T/C (second compound 9.49 µM, first compound 0.00316 µM) of the same molecule?
Answer: Its viability, T/C is 78.6%.

Question: And the viability, T/C (second compound 9.49 µM, first compound 0.01 µM)?
Answer: The viability, T/C was 68.3%.

Question: And the viability, T/C (second compound 9.49 µM, first compound 0.0316 µM)?
Answer: The viability, T/C was 60.9%.

Question: And the viability, T/C (second compound 9.49 µM, first compound 0.1 µM)?
Answer: Its viability, T/C is 60.6%.

Question: What about the viability, T/C (second compound 30 µM, first compound 0.000316 µM) of the same molecule?
Answer: Its viability, T/C is 46.4%.

Question: What about the viability, T/C (second compound 30 µM, first compound 0.001 µM) of the same molecule?
Answer: Its viability, T/C is 42.2%.

Question: What about the viability, T/C (second compound 30 µM, first compound 0.00316 µM) of the same molecule?
Answer: The viability, T/C was 33.8%.

Question: And the viability, T/C (second compound 30 µM, first compound 0.01 µM)?
Answer: Its viability, T/C is 26.7%.

Question: What about the viability, T/C (second compound 30 µM, first compound 0.0316 µM) of the same molecule?
Answer: Its viability, T/C is 31.2%.

Question: And the viability, T/C (second compound 30 µM, first compound 0.1 µM)?
Answer: The viability, T/C was 32.4%.
